In ChEMBL document CHEMBL5291721, “A preclinical secondary pharmacology resource illuminates target-adverse drug reaction associations of marketed drugs” (Nat Commun, 2023):

Columns and labels:
Androgen receptor = target: T1, Androgen receptor (Homo sapiens, UniProt P10275)
T1 sequence (P10275 whole entry): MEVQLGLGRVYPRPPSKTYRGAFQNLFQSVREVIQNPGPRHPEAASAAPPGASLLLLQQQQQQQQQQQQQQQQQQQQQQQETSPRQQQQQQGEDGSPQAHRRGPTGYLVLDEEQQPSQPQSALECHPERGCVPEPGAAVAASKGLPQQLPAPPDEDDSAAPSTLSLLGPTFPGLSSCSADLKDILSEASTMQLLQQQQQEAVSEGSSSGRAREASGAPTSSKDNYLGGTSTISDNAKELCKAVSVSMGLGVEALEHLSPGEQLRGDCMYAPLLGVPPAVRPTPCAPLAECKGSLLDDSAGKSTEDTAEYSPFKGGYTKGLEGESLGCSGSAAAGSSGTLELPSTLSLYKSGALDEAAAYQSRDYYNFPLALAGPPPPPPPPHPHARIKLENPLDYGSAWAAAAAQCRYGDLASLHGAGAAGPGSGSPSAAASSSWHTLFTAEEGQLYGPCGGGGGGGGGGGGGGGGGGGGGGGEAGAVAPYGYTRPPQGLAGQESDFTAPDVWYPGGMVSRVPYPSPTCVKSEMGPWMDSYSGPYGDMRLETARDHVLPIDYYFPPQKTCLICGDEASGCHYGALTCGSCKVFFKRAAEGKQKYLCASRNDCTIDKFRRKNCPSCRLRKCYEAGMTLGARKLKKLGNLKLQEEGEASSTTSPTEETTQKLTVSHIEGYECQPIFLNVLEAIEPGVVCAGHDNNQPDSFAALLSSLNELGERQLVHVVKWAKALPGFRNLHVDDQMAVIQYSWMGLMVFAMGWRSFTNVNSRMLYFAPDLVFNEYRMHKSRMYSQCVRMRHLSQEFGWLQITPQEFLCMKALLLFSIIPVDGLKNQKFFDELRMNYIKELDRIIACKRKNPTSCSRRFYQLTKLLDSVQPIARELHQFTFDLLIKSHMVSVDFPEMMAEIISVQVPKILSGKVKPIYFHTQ

[1] = target: T2, 5-hydroxytryptamine receptor 3A (Homo sapiens, UniProt P46098); format: functional
T2 sequence (P46098 whole entry): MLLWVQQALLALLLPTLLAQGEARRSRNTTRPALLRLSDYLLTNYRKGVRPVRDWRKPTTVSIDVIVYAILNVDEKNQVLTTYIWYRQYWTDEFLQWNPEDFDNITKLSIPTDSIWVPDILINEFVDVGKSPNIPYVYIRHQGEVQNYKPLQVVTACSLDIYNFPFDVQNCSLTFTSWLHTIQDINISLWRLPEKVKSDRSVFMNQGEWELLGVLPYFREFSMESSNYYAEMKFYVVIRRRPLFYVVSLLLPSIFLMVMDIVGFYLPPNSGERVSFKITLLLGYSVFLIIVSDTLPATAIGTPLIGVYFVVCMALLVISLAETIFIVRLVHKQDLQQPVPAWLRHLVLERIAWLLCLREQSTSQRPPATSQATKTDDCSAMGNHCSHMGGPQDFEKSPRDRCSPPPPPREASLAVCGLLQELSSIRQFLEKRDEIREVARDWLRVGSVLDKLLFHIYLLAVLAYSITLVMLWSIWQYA

[2] = target: T3, Cholecystokinin receptor type A (Homo sapiens, UniProt P32238)
T3 sequence (P32238 whole entry): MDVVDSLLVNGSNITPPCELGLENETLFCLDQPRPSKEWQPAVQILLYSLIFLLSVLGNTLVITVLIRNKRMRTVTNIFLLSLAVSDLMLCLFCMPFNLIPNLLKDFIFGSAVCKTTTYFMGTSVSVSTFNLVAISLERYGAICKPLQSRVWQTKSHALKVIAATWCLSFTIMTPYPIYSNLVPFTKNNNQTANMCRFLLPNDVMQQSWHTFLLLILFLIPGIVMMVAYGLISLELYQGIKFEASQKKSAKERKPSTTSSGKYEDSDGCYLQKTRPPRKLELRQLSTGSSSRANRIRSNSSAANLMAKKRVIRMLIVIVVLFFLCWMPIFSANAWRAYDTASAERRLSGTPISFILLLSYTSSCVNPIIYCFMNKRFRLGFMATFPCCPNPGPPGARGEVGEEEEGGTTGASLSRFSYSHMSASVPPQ

[3] = target: T4, Muscarinic acetylcholine receptor M1 (Homo sapiens, UniProt P11229); format: functional, cell-based
T4 sequence (P11229 whole entry): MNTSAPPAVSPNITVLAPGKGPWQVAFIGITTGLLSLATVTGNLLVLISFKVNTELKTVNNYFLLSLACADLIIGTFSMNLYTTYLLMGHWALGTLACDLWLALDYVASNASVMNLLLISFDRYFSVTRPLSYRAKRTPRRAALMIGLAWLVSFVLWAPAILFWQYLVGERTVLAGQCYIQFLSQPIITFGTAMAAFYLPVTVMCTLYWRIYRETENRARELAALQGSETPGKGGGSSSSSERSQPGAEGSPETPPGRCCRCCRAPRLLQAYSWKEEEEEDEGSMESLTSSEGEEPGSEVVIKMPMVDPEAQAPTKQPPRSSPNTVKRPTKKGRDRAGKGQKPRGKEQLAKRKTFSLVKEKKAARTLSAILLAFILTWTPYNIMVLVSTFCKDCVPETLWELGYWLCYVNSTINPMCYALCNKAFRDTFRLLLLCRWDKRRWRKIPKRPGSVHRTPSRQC

[4] = target: T4, Muscarinic acetylcholine receptor M1; format: functional, cell-based; remark: listed apart in the source
[5] = target: Gamma-aminobutyric acid receptor subunit alpha-1 (Rattus norvegicus, UniProt P62813)
Chain of Gamma-aminobutyric acid receptor subunit alpha-1 (P62813 whole entry): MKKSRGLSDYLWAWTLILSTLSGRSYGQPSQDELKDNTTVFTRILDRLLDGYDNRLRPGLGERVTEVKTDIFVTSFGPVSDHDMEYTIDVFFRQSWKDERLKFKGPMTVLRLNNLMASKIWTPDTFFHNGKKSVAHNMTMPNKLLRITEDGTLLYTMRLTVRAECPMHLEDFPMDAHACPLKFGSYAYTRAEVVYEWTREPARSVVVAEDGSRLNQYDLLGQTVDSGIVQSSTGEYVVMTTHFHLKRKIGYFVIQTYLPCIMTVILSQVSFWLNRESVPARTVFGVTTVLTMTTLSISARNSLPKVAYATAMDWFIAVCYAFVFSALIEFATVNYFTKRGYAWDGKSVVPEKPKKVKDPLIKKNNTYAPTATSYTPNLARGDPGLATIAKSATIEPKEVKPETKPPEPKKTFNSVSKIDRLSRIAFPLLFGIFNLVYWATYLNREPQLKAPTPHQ

[6] = target: T5, Alpha-2A adrenergic receptor (Homo sapiens, UniProt P08913); format: functional, cell-based
T5 sequence (P08913 whole entry): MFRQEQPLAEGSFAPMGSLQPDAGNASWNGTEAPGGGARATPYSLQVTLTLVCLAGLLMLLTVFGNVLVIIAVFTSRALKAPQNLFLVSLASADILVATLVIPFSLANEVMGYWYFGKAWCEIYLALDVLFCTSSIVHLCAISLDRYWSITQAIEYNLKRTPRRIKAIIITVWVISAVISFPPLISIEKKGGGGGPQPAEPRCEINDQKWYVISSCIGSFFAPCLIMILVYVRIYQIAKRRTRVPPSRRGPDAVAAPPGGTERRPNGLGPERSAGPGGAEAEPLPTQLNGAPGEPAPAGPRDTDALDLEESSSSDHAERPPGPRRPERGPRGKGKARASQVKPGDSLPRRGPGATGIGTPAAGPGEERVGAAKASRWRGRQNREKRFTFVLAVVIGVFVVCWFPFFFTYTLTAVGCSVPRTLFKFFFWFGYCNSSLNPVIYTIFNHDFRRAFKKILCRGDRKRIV
Note: assay procedure not described here.

| SMILES | AC50 (Androgen receptor) | AC50 [1] | AC50 [2] | AC50 [3] | AC50 [4] | AC50 [5] | AC50 [6] |
| --- | --- | --- | --- | --- | --- | --- | --- |
| C[C@]1(COc2ccc(N3CCC(Oc4ccc(OC(F)(F)F)cc4)CC3)cc2)Cn2cc([N+](=O)[O-])nc2O1 | > 30 µM | > 10 µM | > 30 µM | > 30 µM | > 30 µM | > 10 µM | – |
| CC(c1ccc(Cl)c(Cl)c1)N1N=C(N)CC1=O (stereo not given) [MUZOLIMINE] | > 30 µM | – | – | > 30 µM | > 30 µM | – | – |
| c1ccc2c(CC3=NCCN3)cccc2c1 [NAPHAZOLINE] | > 30 µM | – | – | > 30 µM | > 30 µM | – | 0.043 µM |
| c1cc(CN2CCCNCCNCCCNCC2)ccc1CN1CCCNCCNCCCNCC1 [PLERIXAFOR] | > 30 µM | – | – | > 30 µM | > 30 µM | – | – |
| CCCC(=O)O[C@H]1[C@H](C)O[C@@H](O[C@H]2[C@H](N(C)C)[C@@H](O)[C@H](O[C@H]3[C@@H](CC=O)C[C@@H](C)[C@@H](O)/C=C/C=C/C[C@@H](C)OC(=O)C[C@@H](O)[C@@H]3OC)O[C@@H]2C)C[C@@]1(C)OC(=O)CC [ROKITAMYCIN] | > 30 µM | – | – | > 30 µM | > 30 µM | – | – |
| CCCCCCCCCCCCCCCCCC(=O)NCCCC[C@H](NC(=O)CC[C@@H](NC(=O)[C@H](C)NC(=O)[C@@H](C)O[C@H]1[C@H](O)[C@@H](CO)OC(O)[C@@H]1NC(C)=O)C(N)=O)C(=O)O (stereo not given in full) [ROMURTIDE] | 5.69 µM | – | – | 6.71 µM | > 30 µM | – | – |
| CCOC(=O)[C@H](CCc1ccccc1)N[C@H]1CS[C@H](c2cccs2)CN(CC(=O)O)C1=O [TEMOCAPRIL] | > 30 µM | – | – | > 30 µM | > 30 µM | – | – |
